Measured values: patent US20060154896A1, “Phosphorylated dextrans” (priority 2002, published 2006)

What was measured:
mouse spleen cells = assay: Blastogenic activity on mouse spleen cells ([3H]-thymidine uptake, Stimulation Index); assay type: cell-based
Source text: In the preparation of immune cells, specific pathogen free (SPF) BALB/c mice (Japan SLC, Shizuoka, Japan) were used for examination. Five-week old male mice were purchased, and allowed to freely consume distilled water and MR breeder (Nihon Nosan Kogyo (Nosan Co.)), which is experimental feed for mice and rats. Six- to ten-week-old mice were used for the experiments.
BALB/c mice were anesthetized with ether, and then sacrificed by exsanguination. Their spleens were excised and washed with phosphate buffer (PBS-4×S.P; ph 7.3) containing streptomycin and penicillin ([…] and 400 U/ml, respectively) to remove adipose tissue and such. The spleens were well dispersed in gauze, and spleen cells were filtered through the gauze into PBS to prepare a cell suspension. This cell suspension was centrifuged (at 300×g for five minutes at 4° C.). After discarding the supernatant, the cells were re-suspended in RPMI-1640 medium (SIGMA). The suspension was filtered through a steel mesh to remove aggregated cells, and centrifuged again (five minutes at 300×g and 4° C.). After discarding the supernatant, the cells were finally re-suspended in RPMI-1640 containing 2% fetal calf serum (FCS: Biocell Lab., Inc., CA, US). The viable cell count was determined using a trypan blue staining method, and this suspension was used as the spleen cell suspension in the experiments.
The cell suspension was transferred into each well of a 96-well microplate (SUMITOMO BAKELITE CO., LTD. Tokyo, Japan) to give 2×10^5 cells per well. The dextran and five types of phosphorylated dextrans (molecular weights of about 10,000, 40,000, 160,000, 510,000, and 2,000,000) prepared in Example 1 were respectively added to the wells to a concentration of 100 μg/ml. The cells were then cultured in RPMI-1640 (2% FCS) under 5% CO2 at 37° C. for 48 hours. As positive control samples, lipopolysaccharide (LPS: B-cell mitogen, E. coli 0111: B4, SIGMA) or concanavalin A (ConA: T-cell mitogen, SIGMA) were added at a final concentration of 20 μg/ml and 2 μg/ml, respectively. […] TdR incorporated into the lymphocytes was determined using a liquid scintillation counter (LS1801; Beckman Coulter, Tokyo).
The blastogenic activities on lymphocytes were evaluated by calculating Stimulation Indexes (S.I.) from the [^3H] […]
The blastogenic activities of phosphorylated dextrans on mouse spleen cells were measured as described in Example 5, except that phosphorylated dextrans were added at concentrations of 100 ng/ml, 1 μg/ml, 10 μg/ml, 100 μg/ml, or 200 μg/ml, the cells were incubated in RPMI-1640 medium (2% FCS) under 5% CO2 at 37° C. for 48 hours, and methyl-[^3H]-thymidine uptakes were measured. Blastogenic activity was estimated by calculating S.I. values from the radioactivity, compared with a control. […]

B cells = assay: Blastogenic activity on separated B cells (MACS CD45R adsorbed fraction); assay type: cell-based, mouse; details: B cell fraction, 48 hours, FIG. 6
Protocol: (§1) The mouse spleen cell suspension prepared in Example 4 was washed by centrifugation (at 2,500 rpm for five minutes at 4° C.) with a buffer for cell separation (0.5% BSA, 2 mM EDTA/-PBS). 3×10^7 cells were incubated at 4° C. for 15 minutes with 50 μl of a 20-times diluted biotinylated anti-mouse CD45R antibody (CLTAG Lab, Burlingame, Calif.). The cells were washed by centrifugation with the cell separation buffer (five minutes at 2,500 rpm and 4° C.), and the supernatant was then discarded. 30 μl of ten-fold diluted streptavidin microbeads (Miltenyi Biotec GmbH, Germany) was added to the cells, and the mixture was incubated at 4° C. for 15 minutes. The cells were washed by centrifugation with the cell separation buffer (five minutes at 2,500 rpm and 4° C.), re-suspended in the same buffer, and the suspension was then filtered through a nylon mesh to remove aggregated cells. […]
(§2) The cells thus obtained were collected by centrifugation and re-suspended in RPMI-1640 containing 10% FCS. The blastogenic activity was then determined using the method described above, except that the stimulation by phosphorylated NPS was carried out at a concentration of 100 μg/ml, and the cells were incubated for 48 hours.

T cells = assay: Blastogenic activity on separated T cells (MACS flow-through fraction); assay type: cell-based, mouse; details: T cell fraction, 48 hours, FIG. 6
Protocol: as §1, §2

Substance	blastogenic activity, S.I. (positive control) (mouse spleen cells; LPS 20 μg/ml, 48 hours, FIG. 3)	blastogenic activity, S.I. (positive control) (mouse spleen cells; LPS, FIG. 4 experiment)	activation of B cells (positive control) (B cells)	activation of T cells (positive control) (T cells)	blastogenic activity, S.I. (positive control) (mouse spleen cells; ConA 2 μg/ml, 48 hours, FIG. 3)	blastogenic activity, S.I. (positive control) (mouse spleen cells; ConA, FIG. 4 experiment)
Lipopolysaccharide	89.3	79.8	specifically activated	–	–	–
concanavalin A	–	–	–	specifically activated	189.4	247.8
